Results from patent publication US9757378B2, “Methods to modulate acute myeloid leukemia stem/progenitor cell expansion and/or differentiation” (UNIVERSITE DE MONTREAL, priority 2013, dated 2017).
Structures can show the parent of a compound that is named as a salt.

What was measured:
primary human AML cells [1] = assay: Secondary screen: dose response, five serial dilutions (CD34/CD15 flow cytometry); type: cell-based; design: key to 2ndary screen criteria fulfilled: 0 = no; 1 = yes; conditions: for 2ndary screen criteria fulfilled: ≧50% increase CD34+CD15− (%) and cell counts and ≧50% gated cells in at least one dose; for % increase CD34+CD15− (%) 2ndary screen / % increase CD34+CD15− (cell counts) 2ndary screen: at optimal concentration, compared to DMSO
Method: In the primary screen cells were plated in transparent 384-wellplates (Greiner, 781182) at a density of 5,000 cells in 50 μl final volume per well. Compounds were tested at 2 μM (commercial libraries) or 1 μg/ml (Medicinal Chemistry Facility, IRIC). […] For validation experiments AML cells were grown in 384-well plates with 3-8 replicates per condition.
Flow cytometry was performed on an LSR™ II cytometer equipped with an HTS-device (BD Bioscience, Primary and Secondary screens and in vitro validation experiments) or on a BD Canto™ II cytometer (BD Bioscience, Xenotransplantation and CellTrace Violet™ experiments). Cells were stained for 30 minutes at 4° C. protected from light if not otherwise indicated (CellTrace Violet™ staining). The following flow cytometry-antibodies were used: CD45 Pacific Blue (BioLegend 304029), CD33 PE (BD Bioscience 555450), CD34 APC (BD Bioscience 555824), CD3 FITC (BD Bioscience 555332), CD19 PE-Cy7 (BD Bioscience 557835), CD15 PE (BD Bioscience 555401), and anti-mouse CD45.1 APC-efluor 730 (eBioscience 47-0453-82). CD34 intensities in flow cytometry plots were set at high levels on day 0 to allow tracing of non-predictable decreases of intensities during 7 days in culture.

primary human AML cells [2] = assay: Primary screen: differentiation of primary human AML cells in vitro (CD34/CD15, HTS flow cytometry); conditions: for percent gated cells (viability): 2 μM (commercial libraries) or 1 μg/ml (IRIC); for % increase CD34+ (%) / % increase CD34+ (cell counts) / % increase CD34+CD15− (cell counts): compared to DMSO; for % increase CD34+CD15− (%): compared to DMSO ((compound − DMSO)/DMSO*100)
Method: AML cells were thawed in 37° C. water bath and 1:10 diluted in prewarmed Iscove's modified Dulbecco's medium (IMDM) containing 20% FBS and DNase 100 μg/ml. […] When compounds were added to the culture medium, final DMSO concentrations were 0.1% in all in vitro experiments and 0.01% when cultured cells were transplanted into NSG-mice.
Compounds were tested at 2 μM (commercial libraries) or 1 μg/ml (Medicinal Chemistry Facility, IRIC). […] For validation experiments AML cells were grown in 384-well plates with 3-8 replicates per condition.
Flow cytometry was performed on an LSR™ II cytometer equipped with an HTS-device (BD Bioscience, Primary and Secondary screens and in vitro validation experiments) or on a BD Canto™ II cytometer (BD Bioscience, Xenotransplantation and CellTrace Violet™ experiments). Cells were stained for 30 minutes at 4° C. protected from light if not otherwise indicated (CellTrace Violet™ staining). […] CD34 intensities in flow cytometry plots were set at high levels on day 0 to allow tracing of non-predictable decreases of intensities during 7 days in culture.

[3] = test system: primary human AML specimens; assay: Validation: 7-day serum-free culture of diverse AML specimens (CD34+CD15− cells); type: cell-based; conditions: 7-day culture
Method: The following flow cytometry-antibodies were used: […] Statistical analyses of all in vitro experiments were done using Graphpad Prism v 6.01. […] Normalized CD34^+CD15^- percentages (td7/t0) were analyzed by Wilcoxon matched pairs signed rank test. Bars and error bars represent means and standard deviations (SD), or standard errors of the mean (SEM), as specified. Extreme limiting dilution analysis software (Hu, […]: extreme limiting dilution analysis for comparing depleted and enriched populations in stem cell and other assays. Journal of immunological methods 347, 70-78 (2009); http://bioinf.wehi.edu.au/software/elda/) was used to estimate LSC frequencies with 95% confidence intervals. In cases where all mice were positive or negative, one-sided confidence intervals were calculated. Differences in LSC frequencies between culture conditions were analyzed by Chi-square test.

Row | Molecule | 2ndary screen criteria fulfilled (primary human AML cells [1]) | percent gated cells (viability) (primary human AML cells [2]) | % increase CD34+ (%) (primary human AML cells [2]) | % increase CD34+ (cell counts) (primary human AML cells [2]) | % increase CD34+CD15− (cell counts) (primary human AML cells [2]) | % increase CD34+CD15− (%) (primary human AML cells [2]) | % increase CD34+CD15− (%) 2ndary screen (primary human AML cells [1]) | % increase CD34+CD15− (cell counts) 2ndary screen (primary human AML cells [1]) | CD34+CD15− cell counts in secondary screenings (ranking) (primary human AML cells [1]; in words) | impact on CD34+CD15− cell numbers ([3]; vs DMSO, P<0.0001 paired t-test) | median CD34+CD15− percentage relative to uncultured cells ([3]; SR1 0.75-1 μM, C05 2 μM, DMSO 19% / 22%)
1 | O=c1c2ccccc2oc2ccccc12 [UM0120986, Xanthone] | 0 | 81.40% | 34.82% | 28.81% | 86.26% | 94.85% | – | – | – | – | –
2 | Benzalkonium chloride [UM0120664] | 0 | – | 45.92% | −73.74% | −57.89% | 133.07% | – | – | – | – | –
3 | CO[C@H]1C[C@@H]2CC[C@@H](C)[C@@](O)(O2)C(=O)C(=O)N2CCCC[C@H]2C(=O)O[C@H]([C@H](C)C[C@@H]2CC[C@@H](O)[C@H](OC)C2)CC(=O)[C@H](C)/C=C(\C)[C@@H](O)[C@@H](OC)C(=O)[C@H](C)C[C@H](C)/C=C/C=C/C=C/1C [UM0119219, Rapamycin] | 0 | 72.30% | 27.40% | −57.86% | −44.01% | 68.93% | – | – | – | – | –
4 | N[C@@H]1C[C@H]1c1ccccc1 [UM0118428, Tranylcypromine hydrochloride] | 0 | 77.80% | 49.50% | −11.95% | −10.11% | 52.70% | – | – | – | – | –
5 | COc1ccc(-c2oc3cc(O)cc(O)c3c(=O)c2O)cc1 [UM0119298, Kaempferide] | 1 | 82.40% | 42.31% | 25.55% | 75.15% | 98.71% | 105.80% | 114.93% | – | – | –
6 | CNC(=O)c1cc2c(cn1)[nH]c1ccccc12 [UM0119840, N-Methyl-beta-carboline-3-carboxamide] | 1 | 86.20% | 31.60% | 37.57% | 85.11% | 76.94% | 172.95% | 252.10% | highest | significant impact | 56%
7 | COc1cccc2oc(-c3ccccc3)cc(=O)c12 [UM0113898, 5-Methoxyflavone] | 1 | – | 36.28% | 20.92% | 61.47% | 82.42% | 105.80% | 119.91% | – | – | –
8 | O[C@H]1[C@H]2[C@H](O)CCCN2C[C@H]1O [UM0119223, Swainsonine] | 0 | 81.90% | 30.00% | −43.81% | −22.20% | 79.57% | – | – | – | – | –
9 | COc1cc(-c2oc3cc(O)cc(O)c3c(=O)c2O)ccc1O [UM0119319, Isorhamnetine] | 0 | – | 37.41% | 28.67% | 62.94% | 74.28% | – | – | – | – | –
10 | C[C@@H]1Cc2c(Cl)cc(C(=O)N[C@@H](Cc3ccccc3)C(=O)O)c(O)c2C(=O)O1 [UM0119328, Ochratoxin A] | 0 | 82.10% | 14.82% | 1.28% | 34.37% | 52.56% | – | – | – | – | –
11 | O=C(Nc1ccc2c(c1)OCCO2)c1sc2ccccc2c1Cl [UM0045609, 3-chloro-N-(2,3-dihydro-1,4-benzodioxin-6-yl)-1-benzithiophene-2-carboxamide] | 1 | – | 46.63% | 56.89% | 109.14% | 94.85% | 204.83% | 198.60% | – | – | –
12 | O=c1c(O)c(-c2ccc(O)cc2)oc2cc(O)cc(O)c12 [UM0118952, Kaempferol] | 0 | 78.90% | 26.34% | −2.29% | 44.57% | 87.18% | – | – | – | – | –
13 | COc1c(O)cc2oc(-c3ccc(O)c(O)c3)cc(=O)c2c1O [UM0119305, 6-Methoxyluteolin] | 0 | 83.60% | 31.39% | −2.77% | 40.01% | 88.83% | – | – | – | – | –
14 | COc1ccc(-c2coc3c(O)c(OC)ccc3c2=O)cc1 [UM0121179, Retusin 7-Methylether] | 1 | 82.10% | 58.87% | 59.80% | 125.38% | 124.10% | 218.84% | 199.22% | – | – | –
15 | O=c1cc(-c2ccccc2)oc2cc(O)cc(O)c12 [UM0118950, Chrysin] | 1 | – | 47.05% | 48.57% | 108.30% | 105.68% | 194.69% | 172.16% | – | – | –
16 | CCCCCCC(=O)CCCCCC/C=C/C[C@@H](O)[C@H](O)[C@@](N)(CO)C(=O)O [UM0119199, Myriocin] | 0 | 79.90% | 1.19% | −36.05% | 9.44% | 72.63% | – | – | – | – | –
17 | C[C@]12CC[C@H](O)C[C@H]1CC[C@@H]1[C@@H]2CC[C@]2(C)[C@@H](C3=CC(=O)OC3)[C@@H](O)C[C@]12O [UM0119342, Gitoxigenin] | 0 | 77.10% | 48.71% | −44.85% | −40.00% | 62.33% | – | – | – | – | –
18 | COc1cc(OC)c2c(=O)c(-c3ccc4c(c3)OCO4)coc2c1 [UM0121218, Derrustone] | – | 83.90% | 21.91% | 25.53% | 58.63% | 53.68% | – | – | – | – | –
19 | COc1cc2c(cc1O)C[C@H]1c3c(cc(O)c(OC)c3-2)CCN1C [UM0118103, Boldine] | – | 87.00% | −3.69% | 10.21% | 50.97% | 31.10% | – | – | – | – | –
20 | COc1ccc(-c2cc(=O)c3c(O)cc(O)cc3o2)cc1O [UM0119400, Diosmetine] | 0 | – | 31.48% | −19.72% | 20.75% | 97.56% | – | – | – | – | –
21 | O=c1c2ccccc2oc2ccc(O)cc12 [UM0121186, 2-Hydroxyxanthone] | – | 82.40% | 48.93% | 48.11% | 65.21% | 66.25% | – | – | – | – | –
22 | Oc1cc(O)cc(/C=C/c2ccccc2)c1 [UM0120964, Pinosylvin] | – | 69.90% | 24.20% | 8.62% | 39.69% | 59.46% | – | – | – | – | –
